We go through one compound from PMC2945410 (Journal of molecular biology, 2010).

For one assay, the target named is T1, E. coli YahA (Escherichia coli, UniProt P21514).
T1 sequence (P21514 73-362): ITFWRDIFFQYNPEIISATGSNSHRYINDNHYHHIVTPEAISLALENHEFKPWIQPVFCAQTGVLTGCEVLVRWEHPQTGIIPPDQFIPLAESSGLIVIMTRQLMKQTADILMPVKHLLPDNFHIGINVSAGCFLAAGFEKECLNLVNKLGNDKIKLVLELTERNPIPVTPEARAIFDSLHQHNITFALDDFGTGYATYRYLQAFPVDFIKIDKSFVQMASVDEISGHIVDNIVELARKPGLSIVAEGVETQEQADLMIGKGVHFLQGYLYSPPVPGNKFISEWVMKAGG
The experiment in a line: p-nitrophenol release, absorbance at […] nm. The assay is classed as biochemical. The note with it: 10 mM bis-pNPP, 50 mM HEPES pH 7.5, 2 mM MnCl2.

In a further assay the target is T2, TBD1660 (Thiobacillus denitrificans, UniProt Q3SIB5).
T2 sequence (Q3SIB5 443-698): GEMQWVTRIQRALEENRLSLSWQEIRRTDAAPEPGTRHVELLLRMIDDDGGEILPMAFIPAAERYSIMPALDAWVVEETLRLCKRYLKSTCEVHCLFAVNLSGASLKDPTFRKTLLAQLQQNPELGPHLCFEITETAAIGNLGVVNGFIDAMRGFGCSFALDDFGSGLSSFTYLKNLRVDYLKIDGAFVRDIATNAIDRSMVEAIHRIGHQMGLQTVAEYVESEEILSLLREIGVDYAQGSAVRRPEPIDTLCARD
The experiment in a line: p-nitrophenol release, absorbance at […] nm. It counts as biochemical. As to conditions: 10 mM bis-pNPP, 50 mM HEPES pH 7.5, 2 mM MnCl2.

As to `O=[N+]([O-])c1ccc(OP(=O)(O)Oc2ccc([N+](=O)[O-])cc2)cc1` [bis-pNPP, bis-p-nitrophenyl phosphate], the “p-nitrophenol release, absorbance at 410 nm” value on E. coli YahA is “E. coli YahA and T. denitrificans TBD1660 showing the highest activities”; at TBD1660, “E. coli YahA and T. denitrificans TBD1660 showing the highest activities”.
